Source: US9815843B2, “Compound, photosensitive resin composition comprising the same, and color filter” (Samsung SDI Co., Ltd., priority 2015, dated 2017)

Assay: Solubility measurement in dilution solvent (PGMEA)
Type: physicochemical
Settings: 0.5 g compound, 25° C., 100 rpm, one hour
Protocol: A dilution solvent (PGMEA) is respectively added to 0.5 g of the compounds according to Synthesis Examples 8 to 17 and Comparative Synthesis Examples 1 and 2, and each solution is stirred with a mixrotar (MIXROTAR VMR-5, Iuchi Seieido Co., Ltd.) at 25° C. and 100 rpm for one hour.
Reference for Solubility Evaluation
Greater than or equal to 10 wt % of a compound (a solute) is dissolved based on the total amount of a dilution solvent: ∘
Greater than or equal to 5 wt % but less than 10 wt % of a compound (a solute) is dissolved based on the total amount of a dilution solvent: Δ
Less than 5 wt % of a compound (a solute) is dissolved based on the total amount of a dilution solvent: X

SMILES: CCCCCOc1c(Cl)c(Cl)c2c(c1Cl)C1=NC/2=N\c2c3c(Cl)c(Cl)c(OCCCCC)c(Cl)c3c3[n]2[Zn][n]2/c(c4c(Cl)c(Cl)c(OCCCCC)c(Cl)c4/c2=N/1)=N\C1=NC(=N\3)/c2c(Cl)c(Cl)c(OCCCCC)c(Cl)c21 [Comparative Synthesis Example 2]
- Solubility: Δ (Greater than or equal to 5 wt % but less than 10 wt % of a compound (a solute) is dissolved based on the total amount of a dilution solvent)
